Reference: publication PMC7952708, “In silico method for selecting residue pairs for single-molecule microscopy and spectroscopy” (Scientific Reports, 2021)
Numbering of substitutions follows the chain as printed.

Tests used:
Assay in all cases: solution-based ALEX single-molecule FRET titration
[1] = biological target: T1, OpuAC (substrate-binding domain of OpuA) (Lactococcus lactis, UniProt Q7DAU8, D320C/K453C)
T1 construct: gene busAB
T1 sequence (Q7DAU8 320-573 D320C/K453C): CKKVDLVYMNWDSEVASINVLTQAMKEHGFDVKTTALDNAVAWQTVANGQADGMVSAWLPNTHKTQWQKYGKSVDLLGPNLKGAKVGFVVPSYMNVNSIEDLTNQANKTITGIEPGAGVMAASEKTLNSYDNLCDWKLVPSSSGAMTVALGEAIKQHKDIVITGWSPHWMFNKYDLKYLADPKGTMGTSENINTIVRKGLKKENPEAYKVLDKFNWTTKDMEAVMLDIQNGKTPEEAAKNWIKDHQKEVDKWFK

[2] = biological target: T2, OpuAC (substrate-binding domain of OpuA) (Lactococcus lactis, UniProt Q7DAU8, K521C/T504C)
T2 construct: gene busAB
T2 sequence (Q7DAU8 320-573 T504C/K521C): T1 sequence (Q7DAU8 320-573 D320C/K453C) with C1D, C134K, T185C, K202C

[3] = biological target: T3, OpuAC (substrate-binding domain of OpuA) (Lactococcus lactis, UniProt Q7DAU8, K566C/N414C)
T3 construct: gene busAB
T3 sequence (Q7DAU8 320-573 N414C/K566C): T1 sequence (Q7DAU8 320-573 D320C/K453C) with C1D, N95C, C134K, K247C

`C[N+](C)(C)CC(=O)[O-]` [glycine betaine] gave a Kd [1] of 1 to 4 µM, a Kd [2] of 38 µM and a Kd [3] of 1 to 4 µM.
